Measurements as given in patent publication US20250197424A1, “QUINOLINE COMPOUND AND USE THEREOF” (SHANGHAI PHARMACEUTICALS HOLDING CO., LTD., priority 2022, published 2025).
pIC50: −log10 of the molar value. Counter-ions that a name gives are not always drawn. Like-named read-outs stand apart in the source and are kept apart here.

What was measured:
[1] = target: GTP-KRAS-G12D:SOS1 (Homo sapiens (Human), UniProt P01116, G12D); assay: GTP-KRAS-G12D:SOS1 binding inhibition
Protocol: (§1) The IC50 of the compounds was fitted using a nonlinear regression equation with GraphPad Prism 8. The results are presented in Table 2: • Negative control: DMSO • Positive control: 100 μM BI-2852
(§2) The following nonlinear fitting formula was used to obtain the IC50 (half-maximal inhibitory concentration) of the compounds:
(§3) [formula] • X: logarithm of the compound concentration • Y: 665/615 Ratio

[2] = target: GTP-KRAS-G12D:CRAF (Homo sapiens (Human), UniProt P01116, G12D); assay: GTP-KRAS-G12D:CRAF binding inhibition
Protocol: The IC50 of the compounds was fitted using a nonlinear regression equation with GraphPad Prism 8. The results are presented in Table 2: • Negative control: DMSO • Positive control: 100 μM BI-2852 The following nonlinear fitting formula was used to obtain the IC50 (half-maximal inhibitory concentration) of the compounds: [formula] • X: logarithm of the compound concentration • Y: 665/615 Ratio

[3] = target: GTP-KRAS-WT:SOS1 (Homo sapiens (Human), UniProt P01116); assay: KRAS_WT and SOS1 binding inhibition (KRAS-WT/SOS1 binding kit, 665/615 ratio); conditions: GTP 10 μM
Source text: To detect the inhibitory capability of small molecule compounds on the binding activity between KRAS_WT and SOS1 using a drug screening system based on the binding of KRAS_WT and SOS1 interaction.
a) BI-2852 was used as a positive control, with its stock solution as the first dilution point, followed by a 3-fold dilution, making a total of 10+0 dilutions. Similarly, the first dilution point of the test compounds was also their respective stock solutions, followed by a 3-fold dilution, making a total of 11+0 dilutions. Using Echo, 0.2 μL of the gradient-diluted compound solutions were transferred into a 384-well plate, with each compound tested in duplicate. The final DMSO concentration was 1%. The plate was centrifuged at 1000 rpm for 1 minute. The final concentrations of the positive controls were 100, 33.33, 11.11, 3.70, 1.23, 0.412, 0.137, 0.046, 0.015, 0.005, and 0 μM. The final concentrations of the test compounds were […], 0.01, and 0 μM.
b) KRAS_WT from the kit was prepared with GTP at a final concentration of 10 μM in the dilution buffer, and 5 μL was transferred into the 384-well reaction plate. The plate was centrifuged at 1000 rpm for 1 minute.
c) Subsequently, 5 μL of the SOS1 mixture was transferred into the 384-well reaction plate. The plate was centrifuged at 1000 rpm for 1 minute and incubated at 25° C. for 15 minutes.
d) 10 μL of the detection mixture was transferred into the 384-well reaction plate. The plate was centrifuged at 1000 rpm for 1 minute and incubated overnight at 4° C.
e) The […] and emission wavelength at 615 nm were read using an Envision multimode plate reader. The 665/615 ratio signal intensity was used to characterize the enzyme activity.
as §1, §2, §3

[4] = system: Panc-1 (KRASG12D pancreatic cancer cell) CDX model; type: in vivo, Nu/Nu nude mice
Protocol: Female Nu/Nu nude mice, approximately 8 to 10 weeks old, (Beijing Vital River Laboratory Animal Technology Co., Ltd) were used in these studies. The animals were maintained in individually ventilated cages with a 12-hour light/dark cycle. Food and water were available ad libitum. Panc-1 tumor cells were maintained in vitro at 37° C. in an atmosphere containing 5% CO2 using DMED medium supplemented with 10% fetal bovine serum. Prior to tumor inoculation, cells in the exponential growth phase were harvested and quantified using a cell counter. Panc-1 tumor cells (1×10^7) in 0.2 mL PBS were subcutaneously inoculated into the right flank of each mouse. Randomization was initiated when the average tumor size reached approximately 154.21 mm^3. A total of 9 tumor-bearing mice were enrolled in the study, and these mice were allocated into […] (3 mice per group). Additionally, 3 non-tumor-bearing mice were assigned to the untreated group.
The animals were treated […] via intravenous injection (I.V.) with either a vehicle (10% HP-β-CD) or the vehicle containing the indicated dose of the compound, for approximately 28 days (QD×28 I.V.), or until ethical endpoints were reached (BWL>20%; median tumor volume (MTV)>2000 mm^3; individual TV>3000 mm^3; clinical signs of discomfort). […]
Tumor volume was measured in two dimensions using calipers twice weekly after randomization, and the volume was calculated in mm^3 using the formula: V=(L×W×W)×0.5, where V is the tumor volume, L is the tumor length (the longest tumor dimension), and W is the tumor width (the longest tumor dimension perpendicular to L). […] Tumor growth inhibition (TGI %) was calculated using the formula: TGI %=[1−(Ti/Ci)]×100, where Ti is the median tumor volume in the treatment group on the measurement day, and Ci is the median tumor volume in the control group on the measurement day.

Chain of GTP-KRAS-WT:SOS1 (P01116-2 other isoform, or with tags, fused parts or gaps): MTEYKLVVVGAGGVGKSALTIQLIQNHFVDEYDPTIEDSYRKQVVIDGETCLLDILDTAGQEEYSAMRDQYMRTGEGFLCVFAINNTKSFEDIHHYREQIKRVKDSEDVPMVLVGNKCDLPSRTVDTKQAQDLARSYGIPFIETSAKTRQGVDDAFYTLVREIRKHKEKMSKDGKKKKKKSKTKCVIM
Chain of GTP-KRAS-G12D:SOS1 (P01116-2 other isoform, or with tags, fused parts or gaps G12D): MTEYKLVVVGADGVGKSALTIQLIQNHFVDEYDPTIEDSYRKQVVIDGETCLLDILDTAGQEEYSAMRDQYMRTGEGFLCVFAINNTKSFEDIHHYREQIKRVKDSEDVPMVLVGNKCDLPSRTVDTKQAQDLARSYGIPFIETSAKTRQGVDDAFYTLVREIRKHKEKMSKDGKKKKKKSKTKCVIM
Chain of GTP-KRAS-G12D:CRAF (P01116-2 other isoform, or with tags, fused parts or gaps G12D): as above

| Structure (SMILES) | pIC50 [1] | pIC50 [2] | pIC50 [3] | pIC50 ([1]; dihydrochloride) | pIC50 ([2]; dihydrochloride) | pIC50 ([3]; dihydrochloride) | TGI (%) Day 28 ([4]; Panc-1 KRASG12D in Nu/Nu, 10 mg/kg QD IV, Day 28) | BWL (%) Day 14 ([4]; mouse, in vivo, iv, 10 mg/kg) | BWL (%) Day 28 ([4]; mouse, in vivo, iv, 10 mg/kg) |
| --- | --- | --- | --- | --- | --- | --- | --- | --- | --- |
| CCc1cccc2cc(O)cc(-c3c(F)c4c5c(nc(OC[C@@]67CCCN6C[C@H](F)C7)nc5c3F)N3CC5CCC(N5)C3CO4)c12 (single isomer, unassigned) [Compound 5a, (S or R)-4-((5aS,6S,9R)-1,3-Difluoro-13-(((2R,7aS)-2-fluorotetrahydro-1H-pyrrolizin-7a(5H)-yl)methoxy)-5a,6,7,8,9,10-hexahydro-5H-6,9-epiminoazepino[2′,1′:3,4][1,4]oxazepino[5,6,7-de]quinazolin-2-yl)-5-ethylnaphthalen-2-ol dihydrochloride] | 7.84 | 8.24 | 7.94 | – | – | – | 96% | −0.77% | −1.58% |
| Oc1cc(Cl)c2c(c1)C1(CC2)CCc2c(nc(OC[C@@]34CCCN3C[C@H](F)C4)nc2N2CC3CCC(C2)N3)C1F (single isomer, unassigned) [Compound 8a, (1S or 1R,8'S or 8′R)-4′-((1R,5S)-3,8-Diazabicyclo[3.2.1]octan-3-yl)-4-chloro-8′-fluoro-2′-(((2R,7aS)-2-fluorotetrahydro-1H-pyrrolizin-7a(5H)-yl)methoxy)-2,3,5′,8′-tetrahydro-6′H-spiro[indene-1,7′-quinazolin]-6-ol dihydrochloride] | 7.87 | 7.71 | 7.21 | – | – | – | – | – | – |
| Oc1cc(Cl)c2c(c1)C1(CC2)CCc2c(N3CC4CCC(C3)N4)nc(OC[C@@]34CCCN3C[C@H](F)C4)nc2C1(F)F (single isomer, unassigned) [Compound 9a, (S or R)-4′-((1R,5S)-3,8-Diazabicyclo[3.2.1]octan-3-yl)-4-chloro-8′,8′-difluoro-2′-(((2R,7aS)-2-fluorotetrahydro-1H-pyrrolizin-7a(5H)-yl)methoxy)-2,3,5′,8′-tetrahydro-6′H-spiro[indene-1,7′-quinazolin]-6-ol dihydrochloride] | 7.82 | 7.33 | 6.25 | – | – | – | – | – | – |
| F[C@H]1CN2CCC[C@@]2(COc2nc3c(c(N4CC5CCC(C4)N5)n2)CCC2(CCc4c(Cl)cccc42)C3)C1 (single isomer, unassigned) [Compound 1a, (S or R)-4′-((1R,5S)-3,8-Diazabicyclo[3.2.1]octan-3-yl)-4-chloro-2′-((2R,7aS)-2-fluorotetrahydro-1H-pyrrolizin-7a(5H)-ylmethoxy)-2,3,5′,8′-tetrahydro-6′H-spiro[indene-1,7′-quinazoline]dihydrochloride] | 7.34 | 6.48 | 5.39 | – | – | – | – | – | – |

Further lines, with some results ahead:

| pIC50 [1] | pIC50 [2] | pIC50 [3] | pIC50 ([1]; dihydrochloride) | pIC50 ([2]; dihydrochloride) | pIC50 ([3]; dihydrochloride) | Structure (SMILES) | TGI (%) Day 28 ([4]; Panc-1 KRASG12D in Nu/Nu, 10 mg/kg QD IV, Day 28) | BWL (%) Day 14 ([4]; mouse, in vivo, iv, 10 mg/kg) | BWL (%) Day 28 ([4]; mouse, in vivo, iv, 10 mg/kg) |
| --- | --- | --- | --- | --- | --- | --- | --- | --- | --- |
| – | – | – | 8.00 | 7.79 | 6.63 | CC1CC2(CCc3c(nc(OC[C@@]45CCCN4C[C@H](F)C5)nc3N3C[C@H]4CC[C@@H](C3)N4)C2)c2cc(O)cc(Cl)c21 (single isomer, unassigned) [Compound 7aa, (1R or 1S, 3R or 3S)-4′-((1R,5S)-3,8-diazabicyclo[3.2.1]octan-3-yl)-4-chloro-2′-(((2R,7aS)-2-fluorotetrahydro-1H-pyrrolizin-7a(5H)-yl)methoxy)-3-methyl-2,3,5′,8′-tetrahydro-6′H-spiro[indene-1,7′-quinazolin]-6-ol dihydrochloride] | – | – | – |
| 7.67 | 7.62 | 6.61 | – | – | – | CC1CC2(CCc3c(nc(OC[C@@]45CCCN4C[C@H](F)C5)nc3N3CC4CCC(C3)N4)C2)c2cc(O)cc(Cl)c21 (single isomer, unassigned) [Compound 7a, (1R or 1S)-4′-((1R,5S)-3,8-Diazabicyclo[3.2.1]octan-3-yl)-4-chloro-2′-(((2R,7aS)-2-fluorotetrahydro-1H-pyrrolizin-7a(5H)-yl)methoxy)-3-methyl-2,3,5′,8′-tetrahydro-6′H-spiro[indene-1,7′-quinazolin]-6-ol dihydrochloride] | – | – | – |
